According to ChEMBL document CHEMBL4311992, “Discovery of 3-(((9H-purin-6-yl)amino)methyl)-4,6-dimethylpyridin-2(1H)-one derivatives as novel tubulin polymerization inhibitors for treatment of cancer” (Eur J Med Chem, 2019):
Activity calls are given as the source filed them. No cut-off for these calls is given here.

Experiments:
[1] = test system: Mitogen-activated protein kinase 14 (Homo sapiens), Q16539 [T106M]; assay: Inhibition of recombinant full-length human SAPK2a T106M mutant assessed as residual activity at 10 uM using myelin basic protein as substrate measured after 40 mins in presence of [gamma33P]ATP by scintillation counting method
Mitogen-activated protein kinase 14 (Homo sapiens), Q16539 [T106M], sequence (Q16539 whole entry T106M): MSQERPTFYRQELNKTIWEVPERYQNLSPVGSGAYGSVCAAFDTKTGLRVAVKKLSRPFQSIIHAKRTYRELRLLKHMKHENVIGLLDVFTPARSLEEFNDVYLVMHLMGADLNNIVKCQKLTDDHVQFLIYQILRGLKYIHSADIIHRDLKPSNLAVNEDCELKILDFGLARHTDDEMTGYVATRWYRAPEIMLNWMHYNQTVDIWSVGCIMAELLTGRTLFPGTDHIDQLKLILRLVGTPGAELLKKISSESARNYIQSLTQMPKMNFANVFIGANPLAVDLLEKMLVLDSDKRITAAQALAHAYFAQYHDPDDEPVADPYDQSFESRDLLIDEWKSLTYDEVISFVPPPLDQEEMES

[2] = target: Protein kinase C beta type (Homo sapiens) (UniProt P05771); assay: Inhibition of recombinant human PKCbeta1 (2 to end residues) assessed as residual activity at 10 uM using histone H1 as substrate measured after 40 mins in presence of [gamma33P]ATP by scintillation counting method
Protein kinase C beta type (Homo sapiens), sequence (P05771 2-671 limits assumed): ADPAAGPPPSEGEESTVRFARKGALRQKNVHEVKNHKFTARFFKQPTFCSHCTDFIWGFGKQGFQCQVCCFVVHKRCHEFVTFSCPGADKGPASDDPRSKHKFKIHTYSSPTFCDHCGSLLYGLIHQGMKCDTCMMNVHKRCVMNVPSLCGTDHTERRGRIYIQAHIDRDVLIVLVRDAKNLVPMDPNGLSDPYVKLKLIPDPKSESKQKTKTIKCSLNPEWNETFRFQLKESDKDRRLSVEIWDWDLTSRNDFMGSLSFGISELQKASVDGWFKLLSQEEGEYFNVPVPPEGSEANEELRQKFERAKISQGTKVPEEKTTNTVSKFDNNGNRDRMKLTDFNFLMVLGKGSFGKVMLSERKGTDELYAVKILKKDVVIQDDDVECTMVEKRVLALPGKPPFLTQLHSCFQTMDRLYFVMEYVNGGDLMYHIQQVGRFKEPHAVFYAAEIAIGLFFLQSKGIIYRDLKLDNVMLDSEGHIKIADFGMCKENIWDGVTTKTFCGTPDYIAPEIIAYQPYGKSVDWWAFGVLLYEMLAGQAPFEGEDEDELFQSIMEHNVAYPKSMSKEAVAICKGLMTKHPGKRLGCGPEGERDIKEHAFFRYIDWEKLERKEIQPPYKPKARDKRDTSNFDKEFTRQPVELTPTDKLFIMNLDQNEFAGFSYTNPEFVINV

[3] = target: NUAK family SNF1-like kinase 2 (Homo sapiens) (UniProt Q9H093); assay: Inhibition of recombinant full-length human NUAK2 assessed as residual activity at 10 uM using KKKVSRSGLYRSPSMPENLNRPR as substrate measured after 40 mins in presence of [gamma33P]ATP by scintillation counting method
NUAK family SNF1-like kinase 2 (Homo sapiens), sequence (Q9H093 whole entry): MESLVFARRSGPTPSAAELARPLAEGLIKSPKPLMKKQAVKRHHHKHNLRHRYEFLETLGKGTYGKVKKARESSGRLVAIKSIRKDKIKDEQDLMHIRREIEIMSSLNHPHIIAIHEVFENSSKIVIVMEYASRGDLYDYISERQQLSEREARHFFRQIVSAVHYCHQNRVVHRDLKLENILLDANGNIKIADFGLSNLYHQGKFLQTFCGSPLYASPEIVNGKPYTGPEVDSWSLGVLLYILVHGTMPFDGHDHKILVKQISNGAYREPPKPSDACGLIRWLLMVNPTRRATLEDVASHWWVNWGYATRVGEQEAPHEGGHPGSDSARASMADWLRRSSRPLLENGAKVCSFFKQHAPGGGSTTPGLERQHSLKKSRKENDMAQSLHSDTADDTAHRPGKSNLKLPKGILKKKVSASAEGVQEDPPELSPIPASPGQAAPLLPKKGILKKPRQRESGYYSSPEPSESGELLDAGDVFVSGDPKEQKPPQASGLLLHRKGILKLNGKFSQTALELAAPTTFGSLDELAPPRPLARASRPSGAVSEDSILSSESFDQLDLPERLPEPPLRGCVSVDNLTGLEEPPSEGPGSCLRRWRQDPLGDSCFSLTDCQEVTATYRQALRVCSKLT

[4] = target: Dual specificity mitogen-activated protein kinase kinase 2 (Homo sapiens) (UniProt P36507); assay: Inhibition of recombinant full-length human MEK2 assessed as residual activity at 10 uM using MBP as substrate measured after 40 mins in presence of [gamma33P]ATP by scintillation counting method
Dual specificity mitogen-activated protein kinase kinase 2 (Homo sapiens), sequence (P36507 whole entry): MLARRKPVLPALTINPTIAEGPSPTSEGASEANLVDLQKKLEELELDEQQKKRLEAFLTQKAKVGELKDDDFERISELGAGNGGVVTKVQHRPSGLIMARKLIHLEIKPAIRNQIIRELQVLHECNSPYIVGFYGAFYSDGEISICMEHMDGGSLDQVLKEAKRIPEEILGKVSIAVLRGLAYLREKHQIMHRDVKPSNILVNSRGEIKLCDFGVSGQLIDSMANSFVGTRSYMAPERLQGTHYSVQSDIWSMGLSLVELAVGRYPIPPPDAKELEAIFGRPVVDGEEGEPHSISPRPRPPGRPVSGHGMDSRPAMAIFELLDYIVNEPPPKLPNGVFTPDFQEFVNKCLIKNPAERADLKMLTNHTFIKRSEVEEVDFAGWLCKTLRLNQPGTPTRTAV

[5] = target: Interleukin-1 receptor-associated kinase 1 (Homo sapiens) (UniProt P51617); assay: Inhibition of recombinant human IRAK1 (194 to end residues) assessed as residual activity at 10 uM using myelin basic protein as substrate measured after 40 mins in presence of [gamma33P]ATP by scintillation counting method
Interleukin-1 receptor-associated kinase 1 (Homo sapiens), sequence (P51617 whole entry, looked up): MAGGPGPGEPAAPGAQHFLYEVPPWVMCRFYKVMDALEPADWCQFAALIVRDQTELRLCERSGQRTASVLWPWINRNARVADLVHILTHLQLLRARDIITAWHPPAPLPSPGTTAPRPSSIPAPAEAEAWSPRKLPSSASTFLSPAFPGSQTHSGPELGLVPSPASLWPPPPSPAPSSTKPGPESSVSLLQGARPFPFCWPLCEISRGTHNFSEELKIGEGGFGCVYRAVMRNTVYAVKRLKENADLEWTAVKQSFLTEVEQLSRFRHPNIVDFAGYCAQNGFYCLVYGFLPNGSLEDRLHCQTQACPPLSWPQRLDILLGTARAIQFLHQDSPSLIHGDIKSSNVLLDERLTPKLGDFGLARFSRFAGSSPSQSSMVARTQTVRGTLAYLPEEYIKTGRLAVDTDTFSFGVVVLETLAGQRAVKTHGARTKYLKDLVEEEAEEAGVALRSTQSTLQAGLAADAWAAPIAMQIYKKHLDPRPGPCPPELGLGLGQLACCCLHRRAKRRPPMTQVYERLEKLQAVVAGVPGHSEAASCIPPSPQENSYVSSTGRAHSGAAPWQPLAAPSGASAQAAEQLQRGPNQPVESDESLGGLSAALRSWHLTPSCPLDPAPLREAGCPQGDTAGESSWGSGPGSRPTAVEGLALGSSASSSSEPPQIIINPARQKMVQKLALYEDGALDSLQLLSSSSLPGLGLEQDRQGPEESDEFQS

[6] = target: Histone-lysine N-methyltransferase EZH2 (Homo sapiens) (UniProt Q15910); assay: Inhibition of EZH2 (unknown origin) at 1 uM relative to control
Histone-lysine N-methyltransferase EZH2 (Homo sapiens), sequence (Q15910 whole entry, looked up): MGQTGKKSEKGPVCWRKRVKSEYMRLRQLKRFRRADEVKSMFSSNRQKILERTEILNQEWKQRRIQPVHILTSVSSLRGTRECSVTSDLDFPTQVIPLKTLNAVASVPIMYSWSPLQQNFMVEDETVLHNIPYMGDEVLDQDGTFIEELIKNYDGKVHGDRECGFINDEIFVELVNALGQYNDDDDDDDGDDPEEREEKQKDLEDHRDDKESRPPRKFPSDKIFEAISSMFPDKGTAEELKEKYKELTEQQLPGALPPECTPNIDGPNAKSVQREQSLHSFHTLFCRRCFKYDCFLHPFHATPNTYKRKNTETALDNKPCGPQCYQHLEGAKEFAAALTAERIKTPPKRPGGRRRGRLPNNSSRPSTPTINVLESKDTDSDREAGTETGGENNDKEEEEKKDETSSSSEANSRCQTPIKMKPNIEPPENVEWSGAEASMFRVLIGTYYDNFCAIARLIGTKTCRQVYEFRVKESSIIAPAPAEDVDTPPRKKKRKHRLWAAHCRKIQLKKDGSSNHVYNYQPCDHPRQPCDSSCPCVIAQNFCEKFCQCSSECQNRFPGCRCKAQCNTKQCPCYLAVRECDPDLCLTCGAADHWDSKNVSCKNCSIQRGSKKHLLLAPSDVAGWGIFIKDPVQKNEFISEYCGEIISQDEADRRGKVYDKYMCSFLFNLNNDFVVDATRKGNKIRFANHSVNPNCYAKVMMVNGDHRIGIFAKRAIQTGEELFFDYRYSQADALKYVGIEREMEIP

[7] = target: Testis-specific serine/threonine-protein kinase 1 (Homo sapiens) (UniProt Q9BXA7); assay: Inhibition of recombinant full-length human TSSK1 assessed as residual activity at 10 uM using KKKVSRSGLYRSPSMPENLNRPR as substrate measured after 120 mins in presence of [gamma33P]ATP by scintillation counting method
Testis-specific serine/threonine-protein kinase 1 (Homo sapiens), sequence (Q9BXA7 whole entry): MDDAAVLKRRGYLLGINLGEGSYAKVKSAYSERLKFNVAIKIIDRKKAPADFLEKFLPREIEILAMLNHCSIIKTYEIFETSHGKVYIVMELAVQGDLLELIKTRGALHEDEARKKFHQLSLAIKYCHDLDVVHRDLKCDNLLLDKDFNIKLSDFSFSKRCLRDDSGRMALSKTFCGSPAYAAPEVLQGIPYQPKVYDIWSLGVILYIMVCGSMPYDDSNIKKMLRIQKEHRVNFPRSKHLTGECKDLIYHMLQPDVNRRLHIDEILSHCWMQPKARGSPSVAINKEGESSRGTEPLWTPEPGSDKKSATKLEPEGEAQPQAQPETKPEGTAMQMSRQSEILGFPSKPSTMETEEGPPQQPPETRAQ

[8] = target: PI3K p110 delta/p85 alpha (Mus musculus) (UniProt P26450+O35904); assay: Inhibition of recombinant full-length mouse PI3K p110delta/p85alpha assessed as residual activity at 10 uM using phosphatidylinositol-4, 5-bisphosphate as substrate measured after 40 mins by HTRF assay; type: protein-complex assay
[9] = species: Homo sapiens; assay: Inhibition of recombinant human BrSK2 S251I mutant (2 to end residues) assessed as residual activity at 10 uM using KKLNRTLSFAEPG as substrate measured after 40 mins in presence of [gamma33P]ATP by scintillation counting method
[10] = target: Ephrin type-B receptor 4 (Homo sapiens) (UniProt P54760); assay: Inhibition of recombinant human EphB4 (561 to end residues) assessed as residual activity at 10 uM using poly (Glu, Tyr) 4:1 as substrate measured after 40 mins in presence of [gamma33P]ATP by scintillation counting method
[11] = target: Tyrosine-protein kinase CSK (Homo sapiens) (UniProt P41240); assay: Inhibition of full-length recombinant human CSK assessed as residual activity at 10 uM using poly(Glu, Tyr) 4:1 as substrate measured after 40 mins in presence of [gamma33P]ATP by scintillation counting method
Tyrosine-protein kinase CSK (Homo sapiens), sequence (P41240 2-450 limits assumed): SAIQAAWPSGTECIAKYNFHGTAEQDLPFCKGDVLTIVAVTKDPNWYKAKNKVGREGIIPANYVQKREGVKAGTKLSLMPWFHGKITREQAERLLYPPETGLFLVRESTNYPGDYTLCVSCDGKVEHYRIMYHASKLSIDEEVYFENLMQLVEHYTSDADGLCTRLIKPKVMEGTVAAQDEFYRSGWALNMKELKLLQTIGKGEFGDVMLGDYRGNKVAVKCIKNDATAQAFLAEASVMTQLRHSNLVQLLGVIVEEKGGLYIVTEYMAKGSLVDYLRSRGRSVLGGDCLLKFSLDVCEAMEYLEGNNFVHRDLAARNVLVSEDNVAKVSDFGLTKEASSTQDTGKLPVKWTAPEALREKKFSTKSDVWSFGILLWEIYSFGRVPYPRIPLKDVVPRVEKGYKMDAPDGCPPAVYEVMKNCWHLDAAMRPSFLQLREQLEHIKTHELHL

[12] = test system: Tyrosine-protein kinase ABL1 (Homo sapiens), P00519 [Y253F]; assay: Inhibition of recombinant human ABL Y253F mutant (27 to end residues) assessed as residual activity at 10 uM using EAIYAAPFAKKK as substrate measured after 40 mins in presence of [gamma33P]ATP by scintillation counting method
[13] = test system: Tyrosine-protein kinase ABL1 (Homo sapiens), P00519 [M351T]; assay: Inhibition of recombinant human ABL M351T mutant (27 to end residues) assessed as residual activity at 10 uM using EAIYAAPFAKKK as substrate measured after 40 mins in presence of [gamma33P]ATP by scintillation counting method
[14] = target: CDK3/Cyclin E (Homo sapiens) (UniProt P24864+Q00526); assay: Inhibition of recombinant full-length human CDK3/cyclinE assessed as residual activity at 10 uM using histone H1 as substrate measured after 40 mins in presence of [gamma33P]ATP by scintillation counting method; type: protein-complex assay
[15] = test system: HCT-116; assay: Antitumor activity against human HCT116 cells xenografted in nude BALB/c mouse assessed as reduction in tumor weight at 80 mg/kg, po administered once daily for 4 weeks measured every 3 days during compound dosing; type: functional, organism-based
[16] = Toxicity in nude BALB/c mouse assessed as change in WBC level at 40 to 80 mg/kg, po once daily for 4 weeks measured post-last dose; type: organism-based; conditions: in vivo, 672 h
[17] = target: Tyrosine-protein kinase JAK3 (Homo sapiens) (UniProt P52333); assay: Inhibition of recombinant human JAK3 (781 to end residues) assessed as residual activity at 10 uM using GGEEEEYFELVKKKK as substrate measured after 40 mins in presence of [gamma33P]ATP by scintillation counting method
[18] = target: MAP kinase-interacting serine/threonine-protein kinase 2 (Homo sapiens) (UniProt Q9HBH9); assay: Inhibition of recombinant full-length human Mnk2 assessed as residual activity at 10 uM using myelin basic protein as substrate measured after 40 mins in presence of [gamma33P]ATP by scintillation counting method
[19] = target: Tyrosine-protein kinase SYK (Homo sapiens) (UniProt P43405); assay: Inhibition of recombinant full-length human Syk assessed as residual activity at 10 uM using poly(Glu, Tyr) 4:1 as substrate measured after 120 mins in presence of [gamma33P]ATP by scintillation counting method
[20] = target: Mitogen-activated protein kinase kinase kinase 7 (Homo sapiens) (UniProt O43318); assay: Inhibition of human TAK1 (1 to 303 residues) using casein as substrate measured after 40 mins in presence of [gamma33P]ATP by scintillation counting method; design: scale not given: the % may be the effect or the level left
[21] = target: Non-receptor tyrosine-protein kinase TYK2 (Homo sapiens) (UniProt P29597); assay: Inhibition of human TYK2 (875 to end residues) using GGMEDIYFEFMGGKKK as substrate measured after 40 mins in presence of [gamma33P]ATP by scintillation counting method; design: scale not given: the % may be the effect or the level left
[22] = target: Serine/threonine-protein kinase VRK1 (Homo sapiens) (UniProt Q99986); assay: Inhibition of human VRK1 assessed as residual activity at 10 uM by radiometric method
[23] = target: Serine/threonine-protein kinase VRK2 (Homo sapiens) (UniProt Q86Y07); assay: Inhibition of human VRK2 (1 to 336 residues) using casein as substrate measured after 40 mins in presence of [gamma33P]ATP by scintillation counting method; design: scale not given: the % may be the effect or the level left
Serine/threonine-protein kinase VRK2 (Homo sapiens), sequence (Q86Y07 whole entry, the tested form may be a part): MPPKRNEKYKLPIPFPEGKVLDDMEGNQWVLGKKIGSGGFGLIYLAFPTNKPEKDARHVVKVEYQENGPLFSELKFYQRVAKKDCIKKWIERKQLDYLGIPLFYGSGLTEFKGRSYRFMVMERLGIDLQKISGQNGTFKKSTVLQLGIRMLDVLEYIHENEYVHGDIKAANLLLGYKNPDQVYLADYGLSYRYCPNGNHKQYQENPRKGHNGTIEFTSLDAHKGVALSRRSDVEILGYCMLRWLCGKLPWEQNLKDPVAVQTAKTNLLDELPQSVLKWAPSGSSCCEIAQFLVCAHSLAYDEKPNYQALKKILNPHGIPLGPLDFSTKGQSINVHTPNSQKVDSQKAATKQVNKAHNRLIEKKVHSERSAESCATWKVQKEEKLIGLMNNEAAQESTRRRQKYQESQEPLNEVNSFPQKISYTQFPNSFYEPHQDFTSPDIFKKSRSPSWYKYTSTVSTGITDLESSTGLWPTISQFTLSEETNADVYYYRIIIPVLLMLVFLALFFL

[24] = target: PI3-kinase p110-alpha/p85-alpha (Homo sapiens) (UniProt P27986+P42336); assay: Inhibition of recombinant full-length human PI3K p110alpha/p85alpha assessed as residual activity at 10 uM using phosphatidylinositol-4, 5-bisphosphate as substrate measured after 40 mins by fluorescence assay; type: protein-complex assay
[25] = test system: A549; assay: cells; conditions: Homo sapiens, A549, 72 h
Description: Antiproliferative activity against human A549 cells after 72 hrs by MTT assay

With `Cc1cc(C)c(CNc2nc(Cl)nc3c2ncn3C2CCCC2)c(=O)[nH]1` as the compound, how does the Activity [1] read?
The Activity was 100%.

What about the Activity [2] of the same compound?
The Activity was 96%.

And the Activity [3]?
Its Activity is 114%.

And the Activity [4]?
Its Activity is 109%.

And the Activity [5]?
Its Activity is 102%.

And the inhibition [6]?
Its inhibition is -10%.

And the Activity [7]?
The Activity was 110%.

And the Activity [8]?
The Activity was 100%.

And the Activity [9]?
The Activity was 123%.

What about the Activity [10] of the same compound?
The Activity was 102%.

What about the Activity [11] of the same compound?
The Activity was 98%.

What about the Activity [12] of the same compound?
Its Activity is 109%.

And the Activity [13]?
Its Activity is 96.5%.

What about the Activity [14] of the same compound?
The Activity was 113%.

And the Activity [15]?
The Activity was “Active”.

And the Activity [16]?
The Activity was “Non-Toxic”.

What about the Activity [17] of the same compound?
The Activity was 90%.

What about the Activity [18] of the same compound?
The Activity was 88%.

And the Activity [19]?
Its Activity is 123%.

What about the Activity [20] of the same compound?
Its Activity is 98.5%.

And the Activity [21]?
Its Activity is 95.5%.

And the Activity [22]?
The Activity was 92.5%.

And the Activity [23]?
Its Activity is 102%.

What about the Activity [24] of the same compound?
Its Activity is 99.5%.

And the IC50 [25]?
The IC50 was 100 nM.
